Where a SMILES comes first, the peptide text is derived from it. [ ]: non-standard residue; d: D form. Thr(SO3H) = C[C@@H](OS(=O)(=O)O)[C@H](N)C(=O)O; sY = N[C@@H](Cc1ccc(OS(=O)(=O)O)cc1)C(=O)O; NMeF = CN[C@@H](Cc1ccccc1)C(=O)O
Legend:
[1] = target: T1, receptors in rat pancreas (3H-CCK-8-(SO3 H) binding) (Rattus norvegicus, UniProt P30551); assay: In vitro receptor binding assay, rat pancreas homogenate, 3H-CCK-8-(SO3H) radioligand; settings: 0.15 nM radioligand, 30 min, 25° C.; read-out: Rat Pancreas IC50 (inhibition of specific 3H-CCK-8-(SO3H) binding)
T1 construct: receptors in homogenized preparations of rat pancreatic cells and bovine striata; from tissue; host or cells: rat pancreas homogenate (48,000 x g pellet)
T1 sequence (P30551 1-444): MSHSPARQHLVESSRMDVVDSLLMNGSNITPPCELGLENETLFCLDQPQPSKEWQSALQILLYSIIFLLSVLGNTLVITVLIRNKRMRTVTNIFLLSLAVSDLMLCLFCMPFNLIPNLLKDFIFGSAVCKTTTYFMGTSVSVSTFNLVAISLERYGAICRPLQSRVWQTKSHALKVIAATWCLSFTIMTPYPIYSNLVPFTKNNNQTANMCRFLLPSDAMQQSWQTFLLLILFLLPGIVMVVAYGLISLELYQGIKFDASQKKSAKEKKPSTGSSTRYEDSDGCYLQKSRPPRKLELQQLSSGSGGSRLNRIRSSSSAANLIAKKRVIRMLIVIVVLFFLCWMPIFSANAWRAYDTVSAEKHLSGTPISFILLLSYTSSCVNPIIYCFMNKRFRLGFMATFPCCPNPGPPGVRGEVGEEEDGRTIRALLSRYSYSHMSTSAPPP
Method: This strategy was utilized to minimize central nervous system side effects by identifying peptides with peripheral receptor selectivity. […] The tissue was homogenized 2 x for approx. 15 sec. at 0° C. using a Polytron homogenizer at a setting of 6. The tissue was isolated by centrifugation at 48,000 x g for 10 min. at 0° C. […] Samples were incubated for 30 min. at 25° C. and the incubation terminated by pouring the mixture onto a pre-wet Whatman GF/B filter on a Sandbeck Vacuum Filtration Manifold. The incubation tubes were washed with 2×3 ml of ice-cold HEPES Buffer #2 and the wash filtered through the GF/B filter. The filter was air dried for 10 min. and then placed in a scintillation vial with 12 ml of Beckman HP/b Ready-Solv scintillation cocktail. The vials were shaken for 2 hours and then counted using a Beckman Model 7800 liquid scintillation spectrometer.

Male rats, food intake = assay: Two-meal feeding assay, intranasal administration; format: in vivo, rat; settings: for Food Intake 1st meal (%) / Food Intake 2nd meal (%): saline = 100
Method: Male Sprague-Dawley (CD) rats weighing 180-200 grams (Charles River Breeding Laboratories) were acclimated to a 12 h light/dark cycle (6 a.m. to 6 p.m.) in a room kept at 22° C. They were subsequently fasted for two days, weighed, placed in individual cages, and a four-day period of meal training was begun. During this time the rats were given ground laboratory chow (Purina Lab Chow) in jars for one hour from 9:00 a.m. until 10:00 a.m., the jars were removed from 10:00 a.m. to 12:00 p.m., and placed back in the cages from 12:00 until 1:00 p.m. Under this `1-2-1` meal feeding regime most rats learn to eat approximately as much Per day during the two hours they have access to food as rats which have food ad libitum over the entire 24-hour day. On the fourth day, the rats were weighed again, and any which lost more than five grams body weight were excluded from the test. The animals were then distributed into experimental (n=5 to 6) and control groups (n=6-12). but not matched for body weight.
Male rats were meal trained as described in Example 9. The peptide of Example 2 was dissolved in saline and was administered to the rats intranasally. CCK-8, dissolved in saline was used as a control.

[2] = target: T2, Rat kidney metalloendopeptidase (Rattus norvegicus, UniProt P07861); assay: Degradation by rat kidney metalloendopeptidase (HPLC); format: in vitro ADME; settings: for % Degradation by Height: 37° C., pH 7.6
T2 construct: from tissue; host or cells: rat kidney
T2 sequence (P07861 1-750): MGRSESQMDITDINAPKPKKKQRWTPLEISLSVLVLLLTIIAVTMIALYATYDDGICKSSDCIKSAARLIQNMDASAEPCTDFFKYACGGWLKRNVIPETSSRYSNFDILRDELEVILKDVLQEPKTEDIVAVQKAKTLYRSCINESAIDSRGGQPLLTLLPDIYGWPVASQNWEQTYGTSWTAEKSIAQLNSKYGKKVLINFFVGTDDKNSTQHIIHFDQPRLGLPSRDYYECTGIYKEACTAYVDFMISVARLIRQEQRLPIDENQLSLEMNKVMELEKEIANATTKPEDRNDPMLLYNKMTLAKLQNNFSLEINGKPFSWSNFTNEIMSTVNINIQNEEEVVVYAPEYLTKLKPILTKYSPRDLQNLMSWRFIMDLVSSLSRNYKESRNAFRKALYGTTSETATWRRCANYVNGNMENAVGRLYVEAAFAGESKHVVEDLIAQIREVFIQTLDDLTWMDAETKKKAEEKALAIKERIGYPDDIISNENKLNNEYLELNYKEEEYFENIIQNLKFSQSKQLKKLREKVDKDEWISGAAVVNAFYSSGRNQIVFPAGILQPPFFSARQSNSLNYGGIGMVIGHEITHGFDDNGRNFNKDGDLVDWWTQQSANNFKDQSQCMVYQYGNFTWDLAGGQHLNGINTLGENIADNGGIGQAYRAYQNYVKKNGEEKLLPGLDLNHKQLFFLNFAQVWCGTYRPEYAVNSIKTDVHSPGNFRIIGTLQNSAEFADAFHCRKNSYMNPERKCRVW
Method: Rat kidney metalloendopeptidase (0.01 μg) and 5 nmol of peptide were incubated in 2 μmol tris-HCl buffer (pH 7.6) and at 37° C. for varying periods of time. The degradation of the peptide was monitored by analytical HPLC on a 5 micron Adsorbosphere-ODS column with a 0-50% CH3 CN gradient in 0.1N potassium phosphate, pH 3.0, with UV detection at 210 nm. Rates are based on presumed production of Asp-Tyr(SO3 H)-Met-Gly for CCK-8 and the presumed production of Ac-Tyr(SO3 H)-Met-Gly for Example 2 and 3.

IC50 [1]: 2.2 nM
% Degradation by Height ([2]; incubation 0 min): 0%
% Degradation by Height ([2]; incubation 60 min): 19.4%
% Degradation by Height ([2]; incubation 120 min): 30.3%
No. of Peaks (degradation products) ([2]; incubation 240 min): 2
% Degradation by Height ([2]; incubation 240 min): 56.4%
SMILES: CSCC[C@H](NC(=O)[C@H](Cc1ccc(OS(=O)(=O)O)cc1)NC(C)=O)C(=O)NCC(=O)N[C@@H](Cc1c[nH]c2ccccc12)C(=O)N[C@@H](CCSC)C(=O)N[C@H](C(=O)N(C)[C@@H](Cc1ccccc1)C(N)=O)[C@@H](C)OS(=O)(=O)O [Example 2, Ac-Tyr(SO3 H)-Met-Gly-Trp-Met-Thr(SO3 H)-N-methyl-Phe-NH2] (Ac-[sY]MGWM[Thr(SO3H)][NMeF]-NH2)
Food Intake 1st meal Grams consumed (Male rats, food intake; 3 μg/kg intranasal): 7.5 ± 0.8 Grams
Food Intake 2nd meal Grams consumed (Male rats, food intake; 3 μg/kg intranasal): 6.1 ± 0.3 Grams
Food Intake 1st meal (%) (Male rats, food intake; 3 μg/kg intranasal): 102%
Food Intake 2nd meal (%) (Male rats, food intake; 3 μg/kg intranasal): 109%
Food Intake 1st meal Grams consumed (Male rats, food intake; 10 μg/kg intranasal): 5.5 ± 0.6 Grams
Food Intake 2nd meal Grams consumed (Male rats, food intake; 10 μg/kg intranasal): 6.3 ± 0.4 Grams
Food Intake 1st meal (%) (Male rats, food intake; 10 μg/kg intranasal): 74%
Food Intake 2nd meal (%) (Male rats, food intake; 10 μg/kg intranasal): 112%
Food Intake 1st meal Grams consumed (Male rats, food intake; 30 μg/kg intranasal): 5.8 ± 0.7 Grams
Food Intake 2nd meal Grams consumed (Male rats, food intake; 30 μg/kg intranasal): 4.3 ± 0.6 Grams
Food Intake 1st meal (%) (Male rats, food intake; 30 μg/kg intranasal): 78%
Food Intake 2nd meal (%) (Male rats, food intake; 30 μg/kg intranasal): 76%
Food Intake 1st meal Grams consumed (Male rats, food intake; 100 μg/kg intranasal): 3.4 ± 0.4 Grams
Food Intake 2nd meal Grams consumed (Male rats, food intake; 100 μg/kg intranasal): 4.6 ± 0.5 Grams
Food Intake 1st meal (%) (Male rats, food intake; 100 μg/kg intranasal): 46%
Food Intake 2nd meal (%) (Male rats, food intake; 100 μg/kg intranasal): 82%

Reference: patent US5013722A, “Cholecystokinin analogs for controlling appetite” (Hoffmann-LaRoche Inc., priority 1989, dated 1991)
